Reference: patent publication US10597388B2, “Pyridazinone herbicides” (FMC CORPORATION, priority 2014, dated 2020)

Legend:
Format in all cases: in vivo
[1] = test system: barnyardgrass (Echinochloa crus-galli); experiment: Test B flooded paddy test; conditions: 250 g ai/ha, Flood; visual rating on scale of 0 to 100 where 0 is no effect and 100 is complete control; 13 to 15 d after treatment
How it was run: (§1)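 Plants at the 2-leaf stage were flooded to 3 cm above soil, and test compounds were applied directly into the paddy water, which was held at that depth throughout. After 13 to 15 d in a greenhouse, injury was rated visually against untreated controls on a 0–100 scale (0 no effect, 100 complete control).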

[2] = test system: ducksalad (Heteranthera limosa); experiment: Test B flooded paddy test; conditions: 250 g ai/ha, Flood; visual rating on scale of 0 to 100 where 0 is no effect and 100 is complete control; 13 to 15 d after treatment
How it was run: as §1

[3] = test system: sedge, umbrella (small-flower umbrella sedge, Cyperus difformis); experiment: Test B flooded paddy test; conditions: 250 g ai/ha, Flood; visual rating on scale of 0 to 100 where 0 is no effect and 100 is complete control; 13 to 15 d after treatment
How it was run: as §1

[4] = test system: rice (Oryza sativa); experiment: Test B flooded paddy test; conditions: 250 g ai/ha, Flood; visual rating on scale of 0 to 100 where 0 is no effect and 100 is complete control; 13 to 15 d after treatment
How it was run: as §1

[5] = test system: galium (catchweed bedstraw, Galium aparine); experiment: Test A greenhouse herbicide test, postemergence
How it was run: (§2)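 Greenhouse postemergence test: formulated chemicals sprayed on one- to two-leaf plants (2 to 10 cm), grown in loam soil blended with sand. Injury assessed visually about 10 d later against untreated controls, scored 0 (no effect) to 100 (complete control).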

[6] = test system: blackgrass (Alopecurus myosuroides); experiment: Test A greenhouse herbicide test, postemergence
How it was run: as §2

[7] = test system: barnyardgrass (Echinochloa crus-galli); experiment: Test A greenhouse herbicide test, pre- and postemergence
How it was run: (§3)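 Seeds sown in loam–sand blend got a preemergence directed soil spray of compound in non-phytotoxic solvent with surfactant. Postemergence treatment was given at 2–10 cm, one- to two-leaf stage. After ~10 d in greenhouse, injury was rated visually vs untreated controls, 0 (no effect) to 100 (complete control).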

[8] = test system: foxtail, giant (giant foxtail, Setaria faberii); experiment: as above
How it was run: as §3

[9] = test system: corn (Zea mays); experiment: as above; conditions: Postemergence
How it was run: as §3

[10] = test system: ryegrass, Italian (Italian ryegrass, Lolium multiflorum); experiment: as above
How it was run: as §3

[11] = test system: pigweed (Amaranthus retroflexus); experiment: as above
How it was run: as §3

[12] = test system: wheat (Triticum aestivum); experiment: as above; conditions: Postemergence
How it was run: as §3

[13] = test system: kochia (Kochia scoparia); experiment: as above
How it was run: as §3

[14] = test system: ragweed (common ragweed, Ambrosia elatior); experiment: as above
How it was run: as §3

[15] = 125 g ai/ha, 0 to 100 scale where 0 is no effect and 100 is complete control
[16] = 500 g ai/ha, visual rating after approx. 10 d, 0 to 100 scale (0 no effect, 100 complete control)
[17] = Postemergence, 125 g ai/ha, 0 to 100 scale where 0 is no effect and 100 is complete control
[18] = Postemergence, 500 g ai/ha, visual rating after approx. 10 d, 0 to 100 scale (0 no effect, 100 complete control)
[19] = Preemergence, 125 g ai/ha, 0 to 100 scale where 0 is no effect and 100 is complete control
[20] = Preemergence, 500 g ai/ha, 0 to 100 scale where 0 is no effect and 100 is complete control
[21] = 500 g ai/ha, 0 to 100 scale, 0 is no effect, 100 is complete control
[22] = Postemergence, 500 g ai/ha, 0 to 100 scale, 0 is no effect, 100 is complete control
[23] = Preemergence, 500 g ai/ha, 0 to 100 scale, 0 no effect, 100 complete control
[24] = 125 g ai/ha, 0 to 100 scale, 0 no effect, 100 complete control
[25] = Postemergence, 125 g ai/ha, 0 to 100 scale, 0 no effect, 100 complete control
[26] = Preemergence, 125 g ai/ha, visual injury rating, 0 to 100 scale (0 no effect, 100 complete control), approx. 10 d

CCC(=O)Oc1c(C)nn(C)c(=O)c1-c1c(C(F)(F)F)ccc2ccccc12 [Compound 147]
Plant response rating, Barnyardgrass [1]: 0 | Plant response rating, Ducksalad [2]: 0 | Plant response rating, Sedge, Umbrella [3]: 0 | Plant response rating, Rice [4]: 0 | Plant response rating, Galium [5, 15]: 90 | Plant response rating, Galium [5, 16]: 100 | Plant response rating, Blackgrass [6, 15]: 60 | Plant response rating, Blackgrass [6, 16]: 90 | Plant response rating, Barnyardgrass [7, 17]: 10 | Plant response rating, Barnyardgrass [7, 18]: 40 | Barnyardgrass plant response rating [7, 19]: 30 | Plant response rating, Barnyardgrass [7, 20]: 60 | Plant response rating, Foxtail, Giant [8, 17]: 30 | Plant response rating, Foxtail, Giant [8, 18]: 80 | Foxtail, Giant plant response rating [8, 19]: 10 | Plant response rating, Foxtail, Giant [8, 20]: 40 | Plant response rating, Corn [9, 15]: 0 | Plant response rating, Corn [9, 16]: 0 | Plant response rating, Ryegrass, Italian [10, 17]: 90 | Plant response rating, Ryegrass, Italian [10, 18]: 100 | Plant response rating, Ryegrass, Italian [10, 20]: 100 | Plant response rating, Pigweed [11, 17]: 90 | Plant response rating, Pigweed [11, 18]: 90 | Pigweed plant response rating [11, 19]: 90 | Plant response rating, Pigweed [11, 20]: 100 | Plant response rating, Wheat [12, 15]: 20 | Plant response rating, Wheat [12, 16]: 80 | Plant response rating, Kochia [13, 17]: 80 | Plant response rating, Kochia [13, 18]: 100 | Kochia plant response rating [13, 19]: 50 | Plant response rating, Kochia [13, 20]: 80 | Plant response rating, Ragweed [14, 17]: 90 | Plant response rating, Ragweed [14, 18]: 90 | Plant response rating, Ragweed [14, 20]: 90

COc1nn(C)c(=O)c(-c2c(C)sc3ccc(Cl)cc23)c1OS(C)(=O)=O [Compound 135]
Plant response rating, Barnyardgrass [1]: 0 | Plant response rating, Ducksalad [2]: 0 | Plant response rating, Sedge, Umbrella [3]: 0 | Plant response rating, Rice [4]: 0 | Plant response rating, Galium [5, 15]: 60 | Plant response rating, Galium [5, 16]: 90 | Plant response rating, Blackgrass [6, 15]: 0 | Plant response rating, Blackgrass [6, 16]: 30 | Plant response rating, Barnyardgrass [7, 17]: 0 | Plant response rating, Barnyardgrass [7, 18]: 0 | Barnyardgrass plant response rating [7, 19]: 0 | Plant response rating, Barnyardgrass [7, 20]: 0 | Plant response rating, Foxtail, Giant [8, 17]: 0 | Plant response rating, Foxtail, Giant [8, 18]: 0 | Foxtail, Giant plant response rating [8, 19]: 20 | Plant response rating, Foxtail, Giant [8, 20]: 30 | Plant response rating, Corn [9, 15]: 0 | Plant response rating, Corn [9, 16]: 20 | Plant response rating, Ryegrass, Italian [10, 17]: 40 | Plant response rating, Ryegrass, Italian [10, 18]: 70 | Ryegrass, Italian plant response rating [10, 19]: 20 | Plant response rating, Ryegrass, Italian [10, 20]: 60 | Plant response rating, Pigweed [11, 17]: 0 | Plant response rating, Pigweed [11, 18]: 20 | Pigweed plant response rating [11, 19]: 30 | Plant response rating, Pigweed [11, 20]: 70 | Plant response rating, Wheat [12, 15]: 0 | Plant response rating, Wheat [12, 16]: 0 | Plant response rating, Kochia [13, 17]: 0 | Plant response rating, Kochia [13, 18]: 0 | Kochia plant response rating [13, 19]: 0 | Plant response rating, Kochia [13, 20]: 0 | Plant response rating, Ragweed [14, 17]: 30 | Plant response rating, Ragweed [14, 18]: 60 | Ragweed plant response rating [14, 19]: 30 | Plant response rating, Ragweed [14, 20]: 60

CC(=O)Oc1c(C)nn(C)c(=O)c1-c1c(C)sc2cc(C)cc(C)c12 [Compound 44]
Plant response rating, Barnyardgrass [1]: 0 | Plant response rating, Ducksalad [2]: 0 | Plant response rating, Sedge, Umbrella [3]: 0 | Plant response rating, Rice [4]: 0 | Plant response rating, Galium [5, 15]: 30 | Galium plant response rating [5, 21]: 70 | Plant response rating, Blackgrass [6, 15]: 0 | Blackgrass plant response rating [6, 21]: 0 | Plant response rating, Barnyardgrass [7, 17]: 0 | Barnyardgrass plant response rating [7, 22]: 0 | Barnyardgrass plant response rating [7, 19]: 0 | Plant response rating, Barnyardgrass [7, 23]: 0 | Plant response rating, Foxtail, Giant [8, 17]: 0 | Foxtail, Giant plant response rating [8, 22]: 0 | Foxtail, Giant plant response rating [8, 19]: 0 | Plant response rating, Foxtail, Giant [8, 23]: 0 | Plant response rating, Corn [9, 15]: 0 | Corn plant response rating [9, 21]: 0 | Plant response rating, Ryegrass, Italian [10, 17]: 0 | Ryegrass, Italian plant response rating [10, 22]: 0 | Ryegrass, Italian plant response rating [10, 19]: 0 | Plant response rating, Ryegrass, Italian [10, 23]: 0 | Plant response rating, Pigweed [11, 17]: 0 | Pigweed plant response rating [11, 22]: 0 | Pigweed plant response rating [11, 19]: 0 | Plant response rating, Pigweed [11, 23]: 0 | Plant response rating, Wheat [12, 15]: 0 | Wheat plant response rating [12, 21]: 0 | Plant response rating, Kochia [13, 17]: 0 | Kochia plant response rating [13, 22]: 0 | Kochia plant response rating [13, 19]: 0 | Plant response rating, Kochia [13, 23]: 0 | Plant response rating, Ragweed [14, 17]: 0 | Ragweed plant response rating [14, 22]: 0 | Ragweed plant response rating [14, 19]: 0 | Plant response rating, Ragweed [14, 23]: 10

C#Cc1ccc2cccc(-c3c(O)c(C)nn(C)c3=O)c2c1 [Compound 150]
Plant response rating, Barnyardgrass [1]: 0 | Plant response rating, Ducksalad [2]: 0 | Plant response rating, Sedge, Umbrella [3]: 0 | Plant response rating, Rice [4]: 0 | Plant response rating, Galium [5, 15]: 30 | Plant response rating, Galium [5, 16]: 80 | Plant response rating, Blackgrass [6, 15]: 0 | Plant response rating, Blackgrass [6, 16]: 50 | Plant response rating, Barnyardgrass [7, 17]: 0 | Plant response rating, Barnyardgrass [7, 18]: 30 | Barnyardgrass plant response rating [7, 19]: 0 | Plant response rating, Barnyardgrass [7, 20]: 10 | Plant response rating, Foxtail, Giant [8, 17]: 0 | Plant response rating, Foxtail, Giant [8, 18]: 30 | Foxtail, Giant plant response rating [8, 19]: 0 | Plant response rating, Foxtail, Giant [8, 20]: 30 | Plant response rating, Corn [9, 15]: 0 | Plant response rating, Corn [9, 16]: 0 | Plant response rating, Ryegrass, Italian [10, 17]: 40 | Plant response rating, Ryegrass, Italian [10, 18]: 90 | Plant response rating, Ryegrass, Italian [10, 20]: 70 | Plant response rating, Pigweed [11, 17]: 40 | Plant response rating, Pigweed [11, 18]: 80 | Pigweed plant response rating [11, 19]: 80 | Plant response rating, Pigweed [11, 20]: 100 | Plant response rating, Wheat [12, 15]: 0 | Plant response rating, Wheat [12, 16]: 20 | Plant response rating, Kochia [13, 17]: 40 | Plant response rating, Kochia [13, 18]: 70 | Kochia plant response rating [13, 19]: 0 | Plant response rating, Kochia [13, 20]: 20 | Plant response rating, Ragweed [14, 17]: 0 | Plant response rating, Ragweed [14, 18]: 30 | Plant response rating, Ragweed [14, 20]: 30

Cc1ccc2ccccc2c1-c1c(OS(C)(=O)=O)c(Br)nn(C)c1=O [Compound 155]
Plant response rating, Barnyardgrass [1]: 0 | Plant response rating, Ducksalad [2]: 50 | Plant response rating, Sedge, Umbrella [3]: 65 | Plant response rating, Rice [4]: 20 | Plant response rating, Galium [5, 24]: 90 | Plant response rating, Galium [5, 16]: 90 | Plant response rating, Blackgrass [6, 24]: 60 | Plant response rating, Blackgrass [6, 16]: 70 | Plant response rating, Barnyardgrass [7, 25]: 30 | Plant response rating, Barnyardgrass [7, 18]: 80 | Plant response rating, Barnyardgrass [7, 26]: 50 | Plant response rating, Barnyardgrass [7, 20]: 80 | Plant response rating, Foxtail, Giant [8, 25]: 80 | Plant response rating, Foxtail, Giant [8, 18]: 90 | Plant response rating, Foxtail, Giant [8, 26]: 60 | Plant response rating, Foxtail, Giant [8, 20]: 90 | Plant response rating, Corn [9, 24]: 0 | Plant response rating, Corn [9, 16]: 20 | Plant response rating, Ryegrass, Italian [10, 25]: 90 | Plant response rating, Ryegrass, Italian [10, 18]: 90 | Plant response rating, Ryegrass, Italian [10, 26]: 70 | Plant response rating, Ryegrass, Italian [10, 20]: 90 | Plant response rating, Pigweed [11, 25]: 90 | Plant response rating, Pigweed [11, 18]: 100 | Plant response rating, Pigweed [11, 26]: 100 | Plant response rating, Pigweed [11, 20]: 100 | Plant response rating, Wheat [12, 24]: 30 | Plant response rating, Wheat [12, 16]: 50 | Plant response rating, Kochia [13, 25]: 70 | Plant response rating, Kochia [13, 18]: 80 | Plant response rating, Kochia [13, 26]: 20 | Plant response rating, Kochia [13, 20]: 90 | Plant response rating, Ragweed [14, 25]: 100 | Plant response rating, Ragweed [14, 18]: 100 | Plant response rating, Ragweed [14, 26]: 90 | Plant response rating, Ragweed [14, 20]: 90
